US11697648B2, “Fused pyrimidine pyridinone compounds as JAK inhibitors” (THERAVANCE BIOPHARMA R&D IP, LLC, priority 2019, dated 2023)

tested on: IL-2 stimulated STAT5 phosphorylation in Tall-1 human T cell line (JAK3); test: Cellular JAK3 potency assay: inhibition of IL-2 stimulated pSTAT5 in Tall-1 T cells; type: cell-based; details: IL-2 stimulated pSTAT5, Tall-1 T cells
In short: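 Tall-1 cells, 45,000 per well, preincubated 1 hour with compound at 37 °C, then stimulated 30 minutes with IL-2 at 300 ng/ml final. pSTAT5 (Tyr694/699) in lysates quantified by AlphaLISA SureFire Ultra. pIC50 derived from inhibition curves, given as mean with SD.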

Row | Structure (SMILES) | Tall-1 (pIC50)
1 | C=CC(=O)N1CCN(CCn2c(=O)ccc3cnc(Nc4ccc(N5CCN(C(=O)C[S+]([O-])CC)CC5)cc4)nc32)[C@@H](CC)C1 (stereo partly shown) [Example 198] | C (C represents a pIC50 value between 6 and 6.7 (IC50 between 1 μM and 200 nM))
2 | C=CC(=O)N1CCN(C(C)Cn2c(=O)ccc3cnc(Nc4ccc(N5CCN(C(C)=O)CC5)cc4)nc32)CC1 (stereo not shown) [Example 201] | B (B represents a pC50 value between 6.7 (included) and 7.5 (IC50 between 200 nM and 32 nM))
3 | C=CC(=O)N1CCN(CCn2c(=O)ccc3cnc(Nc4cnn(CCF)c4)nc32)[C@@H](CC)C1 [Example 202] | B (B represents a pC50 value between 6.7 (included) and 7.5 (IC50 between 200 nM and 32 nM))
4 | C=CC(=O)N1CCN(CCn2c(=O)ccc3cnc(Nc4cnn(C(C)(C)COC)c4)nc32)[C@@H](CC)C1 [Example 203] | B (B represents a pC50 value between 6.7 (included) and 7.5 (IC50 between 200 nM and 32 nM))
5 | C=CC(=O)N1CCN(CCn2c(=O)ccc3cnc(Nc4ccc(N5CCN(C(C)C)CC5)cc4)nc32)CC1 [Example 205] | A (A represents a pIC50 value≥7.5 (IC50≤32 nM))
6 | C=CC(=O)N1CCN(CCn2c(=O)ccc3cnc(Nc4ccc(N5CCN(C(C)CC)CC5)cc4)nc32)CC1 (stereo not shown) [Example 206] | A (A represents a pIC50 value≥7.5 (IC50≤32 nM))
7 | C=CC(=O)N1CCN(CCn2c(=O)ccc3cnc(Nc4ccc(N5CCN(CCCOC)CC5)cc4)nc32)CC1 [Example 207] | B (B represents a pC50 value between 6.7 (included) and 7.5 (IC50 between 200 nM and 32 nM))

target: JAK2 (Homo sapiens (Human), UniProt O60674); test: Biochemical JAK2 kinase assay (LanthaScreen); details: not given
Sequence (O60674 whole entry): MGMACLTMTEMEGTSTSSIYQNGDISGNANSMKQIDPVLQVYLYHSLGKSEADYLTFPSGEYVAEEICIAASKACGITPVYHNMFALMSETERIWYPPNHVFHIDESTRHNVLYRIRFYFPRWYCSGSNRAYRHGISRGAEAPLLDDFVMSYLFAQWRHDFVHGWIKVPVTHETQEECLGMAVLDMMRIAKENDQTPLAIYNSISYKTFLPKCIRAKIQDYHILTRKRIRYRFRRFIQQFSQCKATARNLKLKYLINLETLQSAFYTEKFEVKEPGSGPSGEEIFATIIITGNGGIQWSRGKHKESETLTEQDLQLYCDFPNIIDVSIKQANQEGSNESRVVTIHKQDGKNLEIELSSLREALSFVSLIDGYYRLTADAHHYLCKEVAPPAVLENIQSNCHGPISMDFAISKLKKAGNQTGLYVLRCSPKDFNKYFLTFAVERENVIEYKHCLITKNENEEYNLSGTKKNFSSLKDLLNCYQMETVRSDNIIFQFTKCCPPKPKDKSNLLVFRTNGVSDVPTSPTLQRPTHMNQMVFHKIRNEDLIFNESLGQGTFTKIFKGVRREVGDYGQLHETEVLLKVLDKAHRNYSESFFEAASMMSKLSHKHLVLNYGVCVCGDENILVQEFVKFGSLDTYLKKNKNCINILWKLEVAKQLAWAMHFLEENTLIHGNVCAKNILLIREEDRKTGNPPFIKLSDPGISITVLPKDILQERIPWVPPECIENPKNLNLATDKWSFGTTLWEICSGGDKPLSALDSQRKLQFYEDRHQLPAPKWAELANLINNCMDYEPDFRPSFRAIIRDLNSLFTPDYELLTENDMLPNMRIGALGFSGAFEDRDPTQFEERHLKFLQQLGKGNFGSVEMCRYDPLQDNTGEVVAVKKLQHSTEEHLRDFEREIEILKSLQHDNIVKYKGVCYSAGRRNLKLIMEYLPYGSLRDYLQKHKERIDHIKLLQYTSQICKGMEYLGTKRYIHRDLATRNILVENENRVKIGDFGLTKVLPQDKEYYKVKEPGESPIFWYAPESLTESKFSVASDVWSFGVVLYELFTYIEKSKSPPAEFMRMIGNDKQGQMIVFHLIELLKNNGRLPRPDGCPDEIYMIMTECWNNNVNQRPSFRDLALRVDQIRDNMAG
In short: (§1)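 GST-JAK + GFP-STAT1 peptide, HEPES pH 7.5/MgCl2/EGTA/Brij-35 buffer; cpd preincubation 1 h RT; ATP start, 1 h RT; stop with 10 mM EDTA + 2 nM Tb-anti-pSTAT1; TR-FRET 520/495. 4-parameter IC50 → pKi (Cheng-Prusoff).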

Row | Structure (SMILES) | JAK 2 (pKi)
8 | C=CC(=O)N1CCN(CCn2c(=O)ccc3cnc(Nc4ccc(N5CCN(C(=O)C[S+]([O-])CC)CC5)cc4)nc32)[C@@H](CC)C1 (stereo partly shown) [Example 198] | E (E represents a pKi value of 7 or below (Ki of 100 nM or above))
9 | C=CC(=O)N1CCN(C(C)Cn2c(=O)ccc3cnc(Nc4ccc(N5CCN(C(C)=O)CC5)cc4)nc32)CC1 (stereo not shown) [Example 201] | E (E represents a pKi value of 7 or below (Ki of 100 nM or above))
10 | C=CC(=O)N1CCN(CCn2c(=O)ccc3cnc(Nc4cnn(CCF)c4)nc32)[C@@H](CC)C1 [Example 202] | E (E represents a pKi value of 7 or below (Ki of 100 nM or above))
11 | C=CC(=O)N1CCN(CCn2c(=O)ccc3cnc(Nc4cnn(C(C)(C)COC)c4)nc32)[C@@H](CC)C1 [Example 203] | E (E represents a pKi value of 7 or below (Ki of 100 nM or above))
12 | C=CC(=O)N1CCN(CCn2c(=O)ccc3cnc(Nc4ccc(N5CCN(C(C)C)CC5)cc4)nc32)CC1 [Example 205] | E (E represents a pKi value of 7 or below (Ki of 100 nM or above))
13 | C=CC(=O)N1CCN(CCn2c(=O)ccc3cnc(Nc4ccc(N5CCN(C(C)CC)CC5)cc4)nc32)CC1 (stereo not shown) [Example 206] | E (E represents a pKi value of 7 or below (Ki of 100 nM or above))
14 | C=CC(=O)N1CCN(CCn2c(=O)ccc3cnc(Nc4ccc(N5CCN(CCCOC)CC5)cc4)nc32)CC1 [Example 207] | E (E represents a pKi value of 7 or below (Ki of 100 nM or above))

target: JAK3 (Homo sapiens (Human), UniProt P52333); test: Biochemical JAK3 kinase assay (LanthaScreen); details: not given
Sequence (P52333 whole entry): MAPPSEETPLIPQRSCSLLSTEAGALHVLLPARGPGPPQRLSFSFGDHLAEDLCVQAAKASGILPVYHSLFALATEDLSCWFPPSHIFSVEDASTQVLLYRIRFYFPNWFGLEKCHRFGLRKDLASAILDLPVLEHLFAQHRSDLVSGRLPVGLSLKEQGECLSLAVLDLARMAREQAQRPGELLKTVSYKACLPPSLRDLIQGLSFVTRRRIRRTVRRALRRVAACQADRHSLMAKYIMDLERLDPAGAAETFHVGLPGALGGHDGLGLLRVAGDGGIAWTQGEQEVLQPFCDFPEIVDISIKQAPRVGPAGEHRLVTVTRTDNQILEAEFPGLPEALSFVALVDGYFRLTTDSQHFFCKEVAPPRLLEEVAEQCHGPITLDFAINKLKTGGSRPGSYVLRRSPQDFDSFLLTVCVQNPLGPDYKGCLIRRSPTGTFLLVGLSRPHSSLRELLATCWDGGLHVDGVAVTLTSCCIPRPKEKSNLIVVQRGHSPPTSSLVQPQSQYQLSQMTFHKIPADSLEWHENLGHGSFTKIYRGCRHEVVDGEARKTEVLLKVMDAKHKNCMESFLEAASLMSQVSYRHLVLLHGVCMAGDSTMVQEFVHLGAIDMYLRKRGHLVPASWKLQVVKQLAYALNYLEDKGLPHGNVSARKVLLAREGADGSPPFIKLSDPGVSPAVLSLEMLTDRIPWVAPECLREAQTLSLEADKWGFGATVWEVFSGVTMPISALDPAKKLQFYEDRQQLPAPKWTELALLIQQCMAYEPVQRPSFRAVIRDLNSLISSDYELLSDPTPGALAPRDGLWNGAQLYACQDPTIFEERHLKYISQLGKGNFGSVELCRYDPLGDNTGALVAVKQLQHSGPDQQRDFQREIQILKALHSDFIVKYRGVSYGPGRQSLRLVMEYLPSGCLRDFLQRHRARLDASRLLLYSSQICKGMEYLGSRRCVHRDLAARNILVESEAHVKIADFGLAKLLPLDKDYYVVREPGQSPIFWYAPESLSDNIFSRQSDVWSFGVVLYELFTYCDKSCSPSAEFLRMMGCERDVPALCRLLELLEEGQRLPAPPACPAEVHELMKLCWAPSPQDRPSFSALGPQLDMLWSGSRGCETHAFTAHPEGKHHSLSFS
In short: as §1

Row | Structure (SMILES) | JAK 3 (pKi)
15 | C=CC(=O)N1CCN(CCn2c(=O)ccc3cnc(Nc4ccc(N5CCN(C(=O)C[S+]([O-])CC)CC5)cc4)nc32)[C@@H](CC)C1 (stereo partly shown) [Example 198] | B (B represents pKi value between 9 and 10 (Ki between 1 nM and 0.1 nM))
16 | C=CC(=O)N1CCN(C(C)Cn2c(=O)ccc3cnc(Nc4ccc(N5CCN(C(C)=O)CC5)cc4)nc32)CC1 (stereo not shown) [Example 201] | B (B represents pKi value between 9 and 10 (Ki between 1 nM and 0.1 nM))
17 | C=CC(=O)N1CCN(CCn2c(=O)ccc3cnc(Nc4cnn(CCF)c4)nc32)[C@@H](CC)C1 [Example 202] | B (B represents pKi value between 9 and 10 (Ki between 1 nM and 0.1 nM))
18 | C=CC(=O)N1CCN(CCn2c(=O)ccc3cnc(Nc4cnn(C(C)(C)COC)c4)nc32)[C@@H](CC)C1 [Example 203] | B (B represents pKi value between 9 and 10 (Ki between 1 nM and 0.1 nM))
19 | C=CC(=O)N1CCN(CCn2c(=O)ccc3cnc(Nc4ccc(N5CCN(C(C)C)CC5)cc4)nc32)CC1 [Example 205] | B (B represents pKi value between 9 and 10 (Ki between 1 nM and 0.1 nM))
20 | C=CC(=O)N1CCN(CCn2c(=O)ccc3cnc(Nc4ccc(N5CCN(C(C)CC)CC5)cc4)nc32)CC1 (stereo not shown) [Example 206] | A (A represents a pKi value≥10 (Ki≤0.1 nM))
21 | C=CC(=O)N1CCN(CCn2c(=O)ccc3cnc(Nc4ccc(N5CCN(CCCOC)CC5)cc4)nc32)CC1 [Example 207] | B (B represents pKi value between 9 and 10 (Ki between 1 nM and 0.1 nM))

same assay, conditions: selectivity JAK3 over JAK1, difference of pKi

Row | Structure (SMILES) | JAK3 (pKi)-JAK1 (pKi)
22 | C=CC(=O)N1CCN(CCn2c(=O)ccc3cnc(Nc4ccc(N5CCN(C(=O)C[S+]([O-])CC)CC5)cc4)nc32)[C@@H](CC)C1 (stereo partly shown) [Example 198] | A (A represents a value of 3 or above)
23 | C=CC(=O)N1CCN(C(C)Cn2c(=O)ccc3cnc(Nc4ccc(N5CCN(C(C)=O)CC5)cc4)nc32)CC1 (stereo not shown) [Example 201] | A (A represents a value of 3 or above)
24 | C=CC(=O)N1CCN(CCn2c(=O)ccc3cnc(Nc4cnn(CCF)c4)nc32)[C@@H](CC)C1 [Example 202] | A (A represents a value of 3 or above)
25 | C=CC(=O)N1CCN(CCn2c(=O)ccc3cnc(Nc4cnn(C(C)(C)COC)c4)nc32)[C@@H](CC)C1 [Example 203] | A (A represents a value of 3 or above)
26 | C=CC(=O)N1CCN(CCn2c(=O)ccc3cnc(Nc4ccc(N5CCN(C(C)C)CC5)cc4)nc32)CC1 [Example 205] | A (A represents a value of 3 or above)
27 | C=CC(=O)N1CCN(CCn2c(=O)ccc3cnc(Nc4ccc(N5CCN(C(C)CC)CC5)cc4)nc32)CC1 (stereo not shown) [Example 206] | A (A represents a value of 3 or above)
28 | C=CC(=O)N1CCN(CCn2c(=O)ccc3cnc(Nc4ccc(N5CCN(CCCOC)CC5)cc4)nc32)CC1 [Example 207] | A (A represents a value of 3 or above)

tested on: Caco-2 cell monolayers; test: Caco-2 permeation assay; type: in vitro ADME; details: 5 μM, A-B direction, with Verapamil (25 μM)
In short: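 Compounds tested at 5 μM in duplicate across Caco-2 monolayers, apical-to-basolateral, with 25 μM verapamil to block P-gp, at 37° C., 5% CO2. Apical and basal samples taken at 0 and 120 min, analysed by LC-MS/MS; Papp (cm/sec) calculated as dQ/(dt×Area×concentration).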

Row | Structure (SMILES) | Caco Kp
29 | C=CC(=O)N1CCN(CCn2c(=O)ccc3cnc(Nc4ccc(N5CCN(C(=O)C[S+]([O-])CC)CC5)cc4)nc32)[C@@H](CC)C1 (stereo partly shown) [Example 198] | A (A represents a value below 5×10^−6 cm/sec)
30 | C=CC(=O)N1CCN(C(C)Cn2c(=O)ccc3cnc(Nc4ccc(N5CCN(C(C)=O)CC5)cc4)nc32)CC1 (stereo not shown) [Example 201] | A (A represents a value below 5×10^−6 cm/sec)
31 | C=CC(=O)N1CCN(CCn2c(=O)ccc3cnc(Nc4cnn(CCF)c4)nc32)[C@@H](CC)C1 [Example 202] | A (A represents a value below 5×10^−6 cm/sec)
32 | C=CC(=O)N1CCN(CCn2c(=O)ccc3cnc(Nc4cnn(C(C)(C)COC)c4)nc32)[C@@H](CC)C1 [Example 203] | C (C represents a value between 10×10^−6 and 30×10^−6 cm/sec)
33 | C=CC(=O)N1CCN(CCn2c(=O)ccc3cnc(Nc4ccc(N5CCN(C(C)C)CC5)cc4)nc32)CC1 [Example 205] | B (B represents a value between 5×10^−6 and 10×10^−6 cm/sec)
34 | C=CC(=O)N1CCN(CCn2c(=O)ccc3cnc(Nc4ccc(N5CCN(C(C)CC)CC5)cc4)nc32)CC1 (stereo not shown) [Example 206] | C (C represents a value between 10×10^−6 and 30×10^−6 cm/sec)
35 | C=CC(=O)N1CCN(CCn2c(=O)ccc3cnc(Nc4ccc(N5CCN(CCCOC)CC5)cc4)nc32)CC1 [Example 207] | B (B represents a value between 5×10^−6 and 10×10^−6 cm/sec)

target: Tyk2 (Homo sapiens (Human), UniProt P29597); test: Biochemical Tyk2 kinase assay (LanthaScreen); details: not given
Sequence (P29597 whole entry): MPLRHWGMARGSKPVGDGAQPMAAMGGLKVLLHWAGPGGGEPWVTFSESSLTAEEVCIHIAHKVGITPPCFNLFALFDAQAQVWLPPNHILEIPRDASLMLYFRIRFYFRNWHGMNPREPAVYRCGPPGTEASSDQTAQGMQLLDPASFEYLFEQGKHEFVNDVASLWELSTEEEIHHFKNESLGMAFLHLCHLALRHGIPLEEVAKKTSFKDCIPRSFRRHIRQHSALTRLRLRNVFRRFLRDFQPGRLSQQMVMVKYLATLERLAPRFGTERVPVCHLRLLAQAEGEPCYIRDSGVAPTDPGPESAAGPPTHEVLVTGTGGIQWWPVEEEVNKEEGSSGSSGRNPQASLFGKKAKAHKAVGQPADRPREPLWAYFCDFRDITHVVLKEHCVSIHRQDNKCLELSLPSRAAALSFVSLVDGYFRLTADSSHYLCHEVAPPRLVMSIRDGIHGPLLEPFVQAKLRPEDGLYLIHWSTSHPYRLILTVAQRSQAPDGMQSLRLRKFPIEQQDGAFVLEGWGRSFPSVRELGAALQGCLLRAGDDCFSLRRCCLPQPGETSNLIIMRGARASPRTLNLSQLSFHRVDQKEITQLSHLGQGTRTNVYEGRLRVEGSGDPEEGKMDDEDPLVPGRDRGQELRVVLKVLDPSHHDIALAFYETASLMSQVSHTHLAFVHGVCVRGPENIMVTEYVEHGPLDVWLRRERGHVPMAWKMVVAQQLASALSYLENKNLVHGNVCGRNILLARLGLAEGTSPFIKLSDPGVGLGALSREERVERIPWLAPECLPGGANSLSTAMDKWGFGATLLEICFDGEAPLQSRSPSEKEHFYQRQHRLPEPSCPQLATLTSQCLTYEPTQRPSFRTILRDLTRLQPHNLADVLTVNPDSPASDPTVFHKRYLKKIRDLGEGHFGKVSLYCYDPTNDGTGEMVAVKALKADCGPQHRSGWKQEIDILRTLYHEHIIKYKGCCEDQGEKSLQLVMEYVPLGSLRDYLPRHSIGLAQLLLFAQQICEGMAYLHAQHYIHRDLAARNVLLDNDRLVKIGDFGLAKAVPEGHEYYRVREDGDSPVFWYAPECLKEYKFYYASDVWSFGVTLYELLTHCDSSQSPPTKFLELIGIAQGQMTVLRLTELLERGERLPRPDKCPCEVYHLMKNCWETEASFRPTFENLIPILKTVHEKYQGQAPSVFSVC
In short: as §1

Row | Structure (SMILES) | Tyk 2 (pKi)
36 | C=CC(=O)N1CCN(CCn2c(=O)ccc3cnc(Nc4ccc(N5CCN(C(=O)C[S+]([O-])CC)CC5)cc4)nc32)[C@@H](CC)C1 (stereo partly shown) [Example 198] | E (E represents a pKi value of 7 or below (Ki of 100 nM or above))
37 | C=CC(=O)N1CCN(C(C)Cn2c(=O)ccc3cnc(Nc4ccc(N5CCN(C(C)=O)CC5)cc4)nc32)CC1 (stereo not shown) [Example 201] | E (E represents a pKi value of 7 or below (Ki of 100 nM or above))
38 | C=CC(=O)N1CCN(CCn2c(=O)ccc3cnc(Nc4cnn(CCF)c4)nc32)[C@@H](CC)C1 [Example 202] | E (E represents a pKi value of 7 or below (Ki of 100 nM or above))
39 | C=CC(=O)N1CCN(CCn2c(=O)ccc3cnc(Nc4cnn(C(C)(C)COC)c4)nc32)[C@@H](CC)C1 [Example 203] | E (E represents a pKi value of 7 or below (Ki of 100 nM or above))
40 | C=CC(=O)N1CCN(CCn2c(=O)ccc3cnc(Nc4ccc(N5CCN(C(C)C)CC5)cc4)nc32)CC1 [Example 205] | E (E represents a pKi value of 7 or below (Ki of 100 nM or above))
41 | C=CC(=O)N1CCN(CCn2c(=O)ccc3cnc(Nc4ccc(N5CCN(C(C)CC)CC5)cc4)nc32)CC1 (stereo not shown) [Example 206] | E (E represents a pKi value of 7 or below (Ki of 100 nM or above))
42 | C=CC(=O)N1CCN(CCn2c(=O)ccc3cnc(Nc4ccc(N5CCN(CCCOC)CC5)cc4)nc32)CC1 [Example 207] | E (E represents a pKi value of 7 or below (Ki of 100 nM or above))

target: JAK1 (Homo sapiens (Human), UniProt P23458); test: Biochemical JAK1 kinase assay (LanthaScreen); details: not given
Sequence (P23458 whole entry): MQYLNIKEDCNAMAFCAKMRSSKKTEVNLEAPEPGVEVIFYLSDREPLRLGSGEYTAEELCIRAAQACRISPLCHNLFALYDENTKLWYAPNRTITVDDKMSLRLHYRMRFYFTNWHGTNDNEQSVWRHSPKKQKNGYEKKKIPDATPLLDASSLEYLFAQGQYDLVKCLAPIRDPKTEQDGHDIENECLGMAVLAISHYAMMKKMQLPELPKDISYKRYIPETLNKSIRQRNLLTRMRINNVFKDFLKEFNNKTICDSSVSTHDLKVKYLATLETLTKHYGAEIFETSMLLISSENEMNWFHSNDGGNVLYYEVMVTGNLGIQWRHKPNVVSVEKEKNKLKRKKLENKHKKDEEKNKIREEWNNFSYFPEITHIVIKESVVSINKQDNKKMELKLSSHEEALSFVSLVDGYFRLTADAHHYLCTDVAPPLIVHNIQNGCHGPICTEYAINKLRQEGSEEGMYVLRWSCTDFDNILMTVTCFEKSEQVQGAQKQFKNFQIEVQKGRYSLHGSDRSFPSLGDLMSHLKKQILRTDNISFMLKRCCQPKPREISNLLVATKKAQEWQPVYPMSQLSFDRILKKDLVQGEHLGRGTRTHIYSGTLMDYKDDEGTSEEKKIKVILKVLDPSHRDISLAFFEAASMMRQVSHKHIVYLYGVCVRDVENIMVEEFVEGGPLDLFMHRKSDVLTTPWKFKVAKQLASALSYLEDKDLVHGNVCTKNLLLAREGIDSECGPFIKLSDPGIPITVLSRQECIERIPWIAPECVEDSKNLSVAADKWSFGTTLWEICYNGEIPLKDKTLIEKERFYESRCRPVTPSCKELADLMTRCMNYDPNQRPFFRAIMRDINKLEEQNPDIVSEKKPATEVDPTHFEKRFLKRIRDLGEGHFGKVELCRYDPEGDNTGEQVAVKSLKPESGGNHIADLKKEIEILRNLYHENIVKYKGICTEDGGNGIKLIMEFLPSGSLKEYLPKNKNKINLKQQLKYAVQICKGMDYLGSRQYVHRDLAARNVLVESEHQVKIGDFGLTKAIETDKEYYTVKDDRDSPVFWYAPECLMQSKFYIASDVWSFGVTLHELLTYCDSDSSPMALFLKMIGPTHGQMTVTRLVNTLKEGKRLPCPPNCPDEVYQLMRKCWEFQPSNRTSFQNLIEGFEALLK
In short: as §1

Row | Structure (SMILES) | JAK 1 (pKi)
43 | C=CC(=O)N1CCN(CCn2c(=O)ccc3cnc(Nc4ccc(N5CCN(C(=O)C[S+]([O-])CC)CC5)cc4)nc32)[C@@H](CC)C1 (stereo partly shown) [Example 198] | E (E represents a pKi value of 7 or below (Ki of 100 nM or above))
44 | C=CC(=O)N1CCN(C(C)Cn2c(=O)ccc3cnc(Nc4ccc(N5CCN(C(C)=O)CC5)cc4)nc32)CC1 (stereo not shown) [Example 201] | E (E represents a pKi value of 7 or below (Ki of 100 nM or above))
45 | C=CC(=O)N1CCN(CCn2c(=O)ccc3cnc(Nc4cnn(CCF)c4)nc32)[C@@H](CC)C1 [Example 202] | E (E represents a pKi value of 7 or below (Ki of 100 nM or above))
46 | C=CC(=O)N1CCN(CCn2c(=O)ccc3cnc(Nc4cnn(C(C)(C)COC)c4)nc32)[C@@H](CC)C1 [Example 203] | E (E represents a pKi value of 7 or below (Ki of 100 nM or above))
47 | C=CC(=O)N1CCN(CCn2c(=O)ccc3cnc(Nc4ccc(N5CCN(C(C)C)CC5)cc4)nc32)CC1 [Example 205] | E (E represents a pKi value of 7 or below (Ki of 100 nM or above))
48 | C=CC(=O)N1CCN(CCn2c(=O)ccc3cnc(Nc4ccc(N5CCN(C(C)CC)CC5)cc4)nc32)CC1 (stereo not shown) [Example 206] | E (E represents a pKi value of 7 or below (Ki of 100 nM or above))
49 | C=CC(=O)N1CCN(CCn2c(=O)ccc3cnc(Nc4ccc(N5CCN(CCCOC)CC5)cc4)nc32)CC1 [Example 207] | E (E represents a pKi value of 7 or below (Ki of 100 nM or above))
